Holding throughout (test): NCI-60 cell line screen, 48 h
Assay [1] concerns NCI-H460 lung.
Assay [2] concerns EKVX NSCLC.
Assay [3] concerns NCI-H226 lung.
The test system of assay [4] is SF-295 CNS.
The test system of assay [5] is SNB-75 CNS.
Assay [6] deals with SF-268 CNS.
Assay [7] concerns CCRF-CEM leukemia.
In assay [8] the test system is NCI-H522 lung.
Assay [9] relates to SR leukemia.
For assay [10], the system named is HCT-15 colon.

Values joined by “and” are separate entries in the source; they are usually repeats but may differ in a detail not shown here. Equal entries are not always repeated.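 Tested at 5 concentrations; 48 h exposure; 96-well plates; endpoints linearly interpolated, else capped at highest concentration. GI50 = concentration required for 50% inhibition of growth. TGI denotes the concentration required for complete inhibition of growth.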

Consider `C=CC1=CC(C)C[C@]1(O)C(=O)OC` (some centres not stated), for which the GI50 in [1], in assay [2], in assay [3], in [4], in [5] and in assay [6] was over 100000 nM throughout. For the same compound, the GI50 in assay [7] was over 100000 nM. The TGI in assay [8], in [9] and in assay [10] was over 100 µM throughout.

Regarding `Cc1nnc(N=Nc2c(O)[nH]c3ccccc23)n1N`, the TGI in [1], in assay [2], in assay [3], in [4], in assay [5] and in [6] was over 100 µM in each case. Further, the TGI in assay [7], in [8], in assay [9] and in assay [10] was over 100 µM in each case.

For `CCCCCCCCCC(=O)Oc1cccc2onc(C)c12`, the TGI in [1], in assay [2], in assay [3], in assay [4], in assay [5] and in [6] was over 100 µM throughout. Also, the TGI in assay [7], in [8], in [9] and in [10] was over 100 µM throughout.

As to `O=c1oc2ccc(F)cc2c(=O)n1-c1ccc(Br)cc1F`, the GI50 is 574 nM in assay [1]; 1850 nM in assay [2]; 1080 nM in assay [3]; 1820 nM in assay [4]; 252 nM in [5]; 633 nM in assay [6]. The GI50 in [7] is 2720 nM; in assay [8] it was 363 nM; in assay [9] it was 578 nM; in [10] it was 1290 nM. In addition, the TGI in [1] was determined as 23.7 µM; in [2], 9.74 µM; in assay [3], 4.87 µM; in assay [4], 3.63 µM; in assay [5], 2.79 µM; in assay [6], 13.7 µM. In addition, the TGI is over 100 µM in assay [7], 9.38 µM in assay [8], over 100 µM in assay [9] and 10.9 µM in assay [10].

With `CC[C@@]1(O)C(=O)OCc2c1cc1n(c2=O)Cc2cc3c(N)cccc3nc2-1`, the GI50 in assay [1] is 4.39 nM; in [3], 17.9 nM; in assay [4], 8.74 nM; in assay [6] it was 7.28 nM; in assay [7] it was 1.58 nM; in assay [8], 23.4 nM. In addition, the GI50 in [9] was 1.65 nM. The TGI in assay [1] was 0.462 µM; in [2], 7.96 µM; in assay [3], 0.105 µM; in assay [4], 2.37 µM; in [5], 0.0711 µM and 0.231 µM; in assay [6], 3.06 µM. The TGI in assay [8] came to 1.35 µM; in assay [10], 33.7 µM.

`C/C(=N/NC(=O)CC(=O)N(C(=O)c1ccccc1Cl)c1ccc(C)cc1)c1cc2ccccc2oc1=O`: the TGI in assay [1], in [2], in [3], in [4], in [5] and in assay [6] was over 100 µM each time. Besides, the TGI in assay [7], in assay [8], in assay [9] and in assay [10] was over 100 µM each time.

For `CN(C)C/C=C/C(=O)Nc1ccc(C(=O)N2CCC[C@@H](Nc3ncc(Cl)c(-c4c[nH]c5ccccc45)n3)C2)cc1`, the GI50 was 498 nM in assay [1]; 827 nM in [2]; 365 nM in assay [3]; 685 nM in [4]; 97.8 nM in assay [5]; 125 nM in assay [6]. The GI50 in assay [7] is 43.8 nM; in assay [8], 34.4 nM; in assay [9], 33.7 nM; in assay [10] it was 8650 nM. Besides, the TGI in [1] was 5.62 µM; in assay [2], 7.5 µM; in assay [3], 3.2 µM; in assay [4], 4.01 µM; in [5], 0.444 µM; in assay [6], 1.78 µM. Also, the TGI in assay [7] came out at 15.8 µM; in assay [8], 0.228 µM; in assay [9] it was 1.03 µM; in assay [10], 23.2 µM.

Turning to `O=C(O)[C@@H]1CCCC[C@@H]1C(=O)N(C1CCCCC1)C1CCCCC1`, the TGI in assay [1], in [2], in [3], in assay [4], in [5] and in [6] was over 100 µM in each case. Moreover, the TGI in assay [7], in assay [8], in assay [9] and in [10] was over 100 µM in each case.

Consider `C=CC(=O)Nc1cccc(Nc2nc(Nc3ccc(OCCOC(F)F)cc3)ncc2F)c1`, for which the GI50 is 2740 nM in assay [1]; 4300 nM in assay [2]; 520 nM in assay [3]; 6040 nM in assay [4]; 848 nM in [5]; 2250 nM in assay [6]. For the same compound, the GI50 in assay [7] was 5170 nM; in assay [8] it was 1880 nM; in assay [9], 2880 nM; in assay [10], 1970 nM. Further, the TGI is 35.6 µM in assay [1]; over 100 µM in assay [2]; 11.2 µM in assay [3]; 83.4 µM in assay [4]; 5 µM in assay [5]; 17.6 µM in assay [6]. For the same compound, the TGI was 94 µM in [7], 7.44 µM in [8], over 100 µM in assay [9] and over 100 µM in assay [10].

As to `O=C(O)C1C2C=CC(O2)C1C(=O)Nc1ncccn1` (configuration not stated), the TGI in assay [1], in assay [2], in assay [3], in assay [4], in [5] and in assay [6] was over 100 µM in each case. The TGI in assay [7], in assay [8], in [9] and in assay [10] was over 100 µM in each case.

Turning to `C[C@@H]1C/C=C\C(=O)O[C@H](/C=C/C#C/C=C/C(C)(C)[C@@H](O)c2cccc(O)c2Br)[C@@H](C)/C=C/[C@H](C)C[C@H](OC(N)=O)C1`, the GI50 in [1] is 23.4 nM; in assay [2], 71.6 nM; in [3], 445 nM; in [4] it was 21.2 nM; in [5] it was 255 nM; in assay [6], 40.2 nM. Besides, the GI50 in assay [7] is 41.9 nM; in assay [8], 41.7 nM; in assay [9], 27.3 nM; in [10], 34 nM. The TGI turned out to be 11.2 µM in assay [1]; 18.7 µM in assay [2]; 19 µM in assay [3]; 0.0485 µM in assay [4]; 21.2 µM in assay [5]; 18.2 µM in assay [6]. The TGI in assay [7] was 33 µM; in assay [8], 14.7 µM; in assay [9], over 100 µM; in [10], 11.9 µM.

`c1ccc(CC(NCCNC(Cc2ccccc2)c2ccccc2)c2ccccc2)cc1` (configuration not stated): the GI50 was 294 nM in [1]; 482 nM in assay [2]; 1120 nM in assay [3]; 372 nM in assay [4]; 1430 nM in assay [5]; 801 nM in [6]. Moreover, the GI50 in [7] was 490 nM; in [8] it was 320 nM; in assay [9] it was 243 nM; in [10], 463 nM. Besides, the TGI in [1] was 0.719 µM; in assay [2], 3.17 µM; in assay [3] it was 2.79 µM; in [4] it was 1.56 µM; in assay [5] it was 4.56 µM; in assay [6] it was 7.12 µM. Besides, the TGI is 2.57 µM in assay [7], 1.06 µM in assay [8], 0.587 µM in assay [9] and 1.64 µM in assay [10].

With `NC(=O)C(=O)n1ncc(Cl)c(Cl)c1=O`, the TGI is over 100 µM in [1]; 67.5 µM in assay [2]; over 100 µM in assay [3]; 20.3 µM in assay [4]; over 69.7 µM in [5]; over 92.9 µM in [6]. Moreover, the TGI in assay [7] is 26.1 µM; in [8] it was 20.6 µM; in [9], over 49.7 µM; in assay [10], over 76.4 µM.

In the case of `C1=C2CNCC3=Cc4ccc5ccccc5c4OC23Oc2c1ccc1ccccc21`, the GI50 was 3270 nM in assay [1]; 5810 nM in assay [2]; 10600 nM in assay [3]; 3070 nM in assay [4]; 2320 nM in assay [5]; 5640 nM in [6]. The GI50 was 3650 nM in assay [7], 3010 nM in [8], 2200 nM in [9] and 3900 nM in assay [10]. The TGI in [1] came out at 13.1 µM; in [2], 34.1 µM; in [3] it was 27.6 µM; in assay [4], 15.6 µM; in assay [5] it was 11.5 µM; in assay [6], 22.1 µM. Further, the TGI in [7] is over 100 µM; in assay [8] it was 13.1 µM; in assay [9], 5.4 µM; in assay [10], 22.6 µM.

For the compound `Cn1cnc([N+](=O)[O-])c1Sc1nc(N)nc2nc[nH]c12`, the GI50 in assay [1] was 2250 nM; in assay [2], 3900 nM; in assay [3], 7500 nM; in assay [4] it was 635 nM; in [5] it was 1080 nM; in assay [6], 2390 nM. Moreover, the GI50 in assay [7] is 3010 nM; in [8] it was 3560 nM; in [9], 682 nM; in assay [10], 5110 nM. Moreover, the TGI in assay [1], in [2], in assay [3], in [4], in assay [5] and in assay [6] was over 100 µM in each case. For the same compound, the TGI in assay [7] is over 100 µM; in [8] it was over 90.5 µM; in [9] it was over 100 µM; in assay [10], over 100 µM.

With `Cc1ccc(/C=C2\CNC/C(=C\c3ccc(C)cc3)C2=O)cc1`, the GI50 in assay [1] was 1210 nM; in [2] it was 2850 nM; in assay [5] it was 8740 nM; in assay [7], 2740 nM; in [8], 1640 nM; in assay [9], 565 nM. Further, in assay [10], the GI50 was 407 nM. In addition, the TGI in assay [1] was 2.62 µM and 9.51 µM; in [2] it was 8.3 µM and 20.8 µM; in [3], 4.85 µM and 4.96 µM; in [4], over 49.2 µM; in [5], 68.1 µM; in assay [6], 10.3 µM. Moreover, the TGI in assay [7] was 7.82 µM and 8.71 µM; in assay [8], 3.04 µM and 4.63 µM; in [9], 2.87 µM and 1.83 µM; in assay [10], 1.45 µM and 3.62 µM.

`COc1ccc2[nH]c3c(=O)[nH]ncc3c2c1`: the TGI in [1] is over 100 µM; in [2], over 100 µM; in assay [3] it was over 100 µM; in [4], over 100 µM; in assay [5] it was 57.4 µM; in assay [6] it was over 100 µM. Further, the TGI in assay [7], in assay [8], in assay [9] and in [10] was over 100 µM in each case.

For the compound `CN(C)C(=O)SC1=C(c2c(Cl)cccc2Cl)C(=O)c2ccccc21`, the GI50 was 17400 nM in assay [1]; 17400 nM in assay [2]; 19900 nM in assay [3]; 16600 nM in assay [4]; 7940 nM in assay [5]; 8900 nM in [6]. Further, the GI50 is 2670 nM in assay [7], 1740 nM in assay [8], 3560 nM in assay [9] and 2200 nM in [10]. Moreover, the TGI in assay [1] came out at 37.2 µM; in assay [2], 40.3 µM; in [3] it was 59.8 µM; in assay [4], 33.7 µM; in assay [5], 23.9 µM; in [6] it was 22.7 µM. The TGI stood at 9.27 µM in [7], 4.05 µM in assay [8], 88.9 µM in [9] and 6.28 µM in assay [10].
